# Reference: EP1614683B1, “Indazole compounds and pharmaceutical compositions for inhibiting protein kinases, and methods for their use” (priority 1999, dated 2001)
# Read-outs that look alike come from different tables or passages of the source.
# Assays:
# human FGF-R1 = human FGF-R1 (Homo sapiens, UniProt P11362, C488A/C584S/L457V); test: FGF-R spectrophotometric assay; format: biochemical; details: read-out: FGF-P* (% inhibition)
# Procedure: The spectrophotometric assay was carried out as described above for VEGF-R2, except for the following changes in concentration: FGF-R = 50 nM, ATP = 2 mM, and poly(E4Y1) =15 mM.
# LCK tyrosine kinase = LCK tyrosine kinase (Homo sapiens, UniProt P06239, C224D/P223M); test: LCK spectrophotometric assay; format: biochemical; details: Table 1; compound concentration 1 µM; read-out: Lck-P* (% inhibition)
# LCK tyrosine kinase, sequence (P06239 223-509 P223M/C224D): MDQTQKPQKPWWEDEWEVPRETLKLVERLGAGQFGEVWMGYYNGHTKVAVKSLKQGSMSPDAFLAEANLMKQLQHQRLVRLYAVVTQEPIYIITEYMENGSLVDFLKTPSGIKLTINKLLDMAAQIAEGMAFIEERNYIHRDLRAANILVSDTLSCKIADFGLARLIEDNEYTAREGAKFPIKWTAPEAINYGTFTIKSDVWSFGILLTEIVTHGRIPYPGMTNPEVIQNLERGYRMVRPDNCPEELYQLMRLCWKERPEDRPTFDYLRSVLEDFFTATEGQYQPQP
# Procedure: The spectrophotometric assay was carried out as described above for VEGF-R2, except for the following changes in concentration: LCK = 60 nM, MgCl2 = 0 mM, poly(E4Y1) = 20 mM.
# [1] = system: human umbilical vein endothelial cells (HUVEC); test: HUVEC proliferation assay (VEGF-stimulated, MTT); format: cell-based; details: Homo sapiens, HUVEC, Table 1; + albumin; read-out: HUVEC + albumin IC50
# Procedure: This assay determines the ability of a test compound to inhibit the growth factor-stimulated proliferation of human umbilical vein endothelial cells ("HUVEC"). HUVEC cells (passage 3-4, Clonetics, Corp.) were thawed into EGM2 culture medium (Clonetics Corp) in T75 flasks. Fresh EGM2 medium was added to the flasks 24 hours later. Four or five days later, cells were exposed to another culture medium (F12K medium supplemented with 10% fetal bovine serum (FBS), 60 µg/mL endothelial cell growth supplement (ECGS), and 0.1 mg/mL heparin). Exponentially-growing HUVEC cells were used in experiments thereafter. Ten to twelve thousand HUVEC cells were plated in 96-well dishes in 100 µl of rich, culture medium (described above). The cells were allowed to attach for 24 hours in this medium. The medium was then removed by aspiration and 105 µl of starvation media (F12K+1% FBS) was added to each well. After 24 hours, 15 µl of test agent dissolved in 1% DMSO in starvation medium or this vehicle alone was added into each treatment well; the final DMSO concentration was 0.1%. One hour later, 30 µl of VEGF (30 ng/mL) in starvation media was added to all wells except those containing untreated controls; the final VEGF concentration was 6 ng/mL. Cellular proliferation was quantified 72 hours later by MTT dye reduction, at which time cells were exposed for 4 hours MTT (Promega Corp.).
# [2] = target: unphosphorylated VEGF-R2Δ50 (Homo sapiens, UniProt P35968, DEL940-989/E990V); test: biochemical; details: read-out: FLVK ** (% inhibition)
# unphosphorylated VEGF-R2Δ50, sequence (P35968 with tags, fused parts or gaps DEL940-989/E990V limits assumed): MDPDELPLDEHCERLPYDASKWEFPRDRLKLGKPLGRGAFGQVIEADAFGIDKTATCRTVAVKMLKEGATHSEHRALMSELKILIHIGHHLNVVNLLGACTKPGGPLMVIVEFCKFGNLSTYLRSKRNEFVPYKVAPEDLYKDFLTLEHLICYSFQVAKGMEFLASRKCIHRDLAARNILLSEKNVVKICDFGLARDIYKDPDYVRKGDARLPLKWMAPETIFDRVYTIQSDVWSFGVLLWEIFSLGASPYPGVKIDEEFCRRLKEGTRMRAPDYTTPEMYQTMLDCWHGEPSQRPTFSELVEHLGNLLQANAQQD
# [3] = Table 1, compound concentration 1 µM
# human FGF-R1, sequence (P11362 456-766 L457V/C488A/C584S): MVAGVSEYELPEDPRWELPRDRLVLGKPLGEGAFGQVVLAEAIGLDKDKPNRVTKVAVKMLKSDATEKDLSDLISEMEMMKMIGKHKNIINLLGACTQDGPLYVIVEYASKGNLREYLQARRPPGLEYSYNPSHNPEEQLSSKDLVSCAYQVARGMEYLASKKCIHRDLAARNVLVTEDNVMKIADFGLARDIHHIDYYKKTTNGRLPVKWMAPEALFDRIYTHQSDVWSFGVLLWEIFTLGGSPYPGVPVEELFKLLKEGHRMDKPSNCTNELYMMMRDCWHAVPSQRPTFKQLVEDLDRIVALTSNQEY
SMILES,inhibition at 1 µM (human FGF-R1; [3]) [%],inhibition at 1 µM (LCK tyrosine kinase) [%],IC50 [1] [nM],inhibition at 0.05 µM [2] [%],inhibition at 1 µM (human FGF-R1) [%]
O=C(N[C@@H]1C[C@H]1c1ccccc1)c1ccccc1Sc1ccc2c(/C=C/c3ccccn3)n[nH]c2c1 (racemic) [Reference Example 34],95,78,15,97,
"CC(C)NC(=O)c1ccccc1Sc1ccc2c(/C=C/c3ccccn3)n[nH]c2c1 [Reference Example 35(b), 6-[2-(i-Propylcarbamoyl)phenylsulfanyl]-3-E-[2-(pyridin-2-yl)ethenyl]-1H-indazole]",59,12,35,49,
"O=C(NCCc1cccs1)c1ccccc1Sc1ccc2c(/C=C/c3ccccn3)n[nH]c2c1 [Reference Example 35(hh), 6-[2-(2-(Thien-2-yl)ethylcarbamoyl)phenylsulfanyl]-3-E-[2-(pyridin-2-yl)ethenyl]-1H-indazole]",73,34,7,100,
"Cc1ccccc1C(=O)NNC(=O)c1ccccc1Sc1ccc2c(/C=C/c3ccccn3)n[nH]c2c1 [Reference Example 35(q), 6-[2-((2-Methylphenylhydrazido)carbonyl)phenylsulfanyl]-3-E-[2-(pyridin-2-yl)ethenyl]-1H-indazole]",51,42,18,92,
Cn1ccnc1/C=N/NC(=O)c1ccccc1Sc1ccc2c(/C=C/c3ccccn3)n[nH]c2c1 [Reference Example 36(a)],38,19,19,87,
"O=C(NC1CC1)c1cccc(F)c1Sc1ccc2c(/C=C/c3ccccn3)n[nH]c2c1 [Reference Example 37(b), 6-[6-Fluoro-2-(cyclopropylcarbamoyl)phenylsulfanyl]-3-E-[2-(pyridin-2-yl)ethenyl]-1H-indazole]",36,8,30 to 100,48,
"CNC(=O)c1cccc(F)c1Sc1ccc2c(/C=C/c3ccccn3)n[nH]c2c1 [Reference Example 37(d), 6-[6-Fluoro-2-(methylcarbamoyl)phenylsulfanyl]-3-E-[2-(pyridin-2-yl)ethenyl]-1H-indazole]",38,10,,26,
"Cc1ccc(C(=O)c2ccc3c(/C=C/c4ccccn4)n[nH]c3c2)cc1N [Reference Example 40(b), 6-(3-Amino-4-methyl-benzoyl)-3-E-[2-(pyridin-2-yl)ethenyl]-1H-indazole]",92,32,,89,
"Cc1cc(C)c(C(=O)c2ccc3c(/C=C/c4ccccn4)n[nH]c3c2)cc1N [Reference Example 40(c), 6-(5-Amino-2,4-dimethyl-benzoyl)-3-E-[2-(pyridin-2-yl)ethenyl]-1H-indazole]",59,28,,24,
"O=C(Nc1cccc(C(=O)c2ccc3c(/C=C/c4ccccn4)n[nH]c3c2)c1)Oc1ccccc1 [Reference Example 41(cc), 6-[3-(phenoxyamido)benzoyl]-3-E-[2-(pyridin-2-yl)ethenyl]-1H-indazole]",,41,,97,95
"CC(=O)Nc1cc(C(=O)c2ccc3c(/C=C/c4ccccn4)n[nH]c3c2)c(C)cc1C [Reference Example 41(nn), 6-(5-acetamido-2,4-dimethylbenzoyl)-3-E-[2-(pyridin-2-yl)ethenyl]-1H-indazole]",91,7,,57,
"Cc1cc(C(=O)Nc2cccc(C(=O)c3ccc4c(/C=C/c5ccccn5)n[nH]c4c3)c2)cc(Cl)n1 [Reference Example 41(q), 6-[3-((2-chloro-6-methylpyridin-4-yl)carboxamido)benzoyl]-3-E-[2-(pyridin-2-yl)ethenyl]-1H-indazole]",91,53,,100,
